Source: patent US20240298638A1, “METHODS AND COMPOSITIONS FOR REDUCING MICROBIAL CONTAMINANTS DURING POULTRY PROCESSING” (DIVERSEY, INC., priority 2020, published 2024)

System: Salmonella Enterica ATCC 10708
Assay: Antimicrobial efficacy on inoculated chicken drumettes (log10 reduction, nBPW neutralizer; Colby synergy)
Type: cell-based
Settings: for Observed Average Reduction (AntiLog10 value): antiLog10 of the observed log10 reduction; for Observed Average Reduction (AntiLog10 value) / Observed Average Log10 Reduction: Salmonella Enterica ATCC 10708; for Observed Average Log10 Reduction: chicken drumettes soaked 90 seconds in composition, recovery in nBPW neutralizer

Structure (SMILES) | Observed Average Reduction (AntiLog10 value) | Observed Average Log10 Reduction [log10] | antimicrobial efficiency of the organic solvent by itself (by itself)
CCC(=O)O [propionic acid] | 6.17 | 0.79 | –
CC(=O)OO [PAA, peracetic acid] | 14.15 | 1.16 | –
CC(O)CO (centres unmarked) [Propylene glycol] | – | – | did not provide any antimicrobial efficiency
